Laboratory results as given in patent US9493420B2, “Quinoline derivatives and uses thereof” (Portland State University, priority 2005, dated 2016).

Test system: P. falciparum strain TM91C235; note: key: S = sensitive; R = resistant; S/R = intermediate level of resistance
Assay: not given
Settings: cited from earlier work

Compound	Drug susceptibility, strain TM91C235
OC(c1cc(C(F)(F)F)nc2c(C(F)(F)F)cccc12)C1CCCCN1 (stereo not drawn) [Mefloquine]	R
C=C[C@H]1C[N@@]2CC[C@H]1C[C@H]2[C@H](O)c1ccnc2ccc(OC)cc12 [Quinine]	R
COc1ncnc(NS(=O)(=O)c2ccc(N)cc2)c1OC [Sulfadoxine]	R

Biological target: T1, recombinant human serotonin (hSERT) transporter (Homo sapiens, UniProt P31645)
T1 construct: expressed in transfected cells; host or cells: HEK cells expressing hSERT
T1 sequence (P31645 whole entry): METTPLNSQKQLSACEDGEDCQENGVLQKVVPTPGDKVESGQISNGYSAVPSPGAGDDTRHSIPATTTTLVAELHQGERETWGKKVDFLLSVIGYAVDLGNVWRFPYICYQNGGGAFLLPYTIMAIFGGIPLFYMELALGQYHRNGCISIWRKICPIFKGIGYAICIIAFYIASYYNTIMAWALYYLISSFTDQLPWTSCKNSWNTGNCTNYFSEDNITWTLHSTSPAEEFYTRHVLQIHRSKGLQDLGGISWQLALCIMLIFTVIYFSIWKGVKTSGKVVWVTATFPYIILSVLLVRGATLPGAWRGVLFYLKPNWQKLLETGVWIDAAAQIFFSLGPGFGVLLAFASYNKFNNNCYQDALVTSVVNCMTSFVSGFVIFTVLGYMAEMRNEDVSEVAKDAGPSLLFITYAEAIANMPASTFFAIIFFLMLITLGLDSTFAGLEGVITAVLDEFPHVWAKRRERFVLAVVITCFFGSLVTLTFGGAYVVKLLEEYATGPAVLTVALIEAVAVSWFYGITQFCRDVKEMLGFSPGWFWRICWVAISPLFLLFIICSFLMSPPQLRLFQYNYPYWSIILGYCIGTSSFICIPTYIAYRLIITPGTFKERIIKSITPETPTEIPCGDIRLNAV
Assay: Inhibition of [3H]neurotransmitter uptake, hSERT
Type: cell-based
Settings: not given
Procedure: (§1) Selected RCQs were tested for inhibition of [^3H]neurotransmitter uptake by the recombinant human serotonin (hSERT), dopamine (HEK-hDAT), and norepinephrine (hNET) transporters by a modification of the method of Eshleman et al. (J. Pharmacol. Exp. Ther., 289(2):877-885, 1999). HEK-hDAT, hSERT, and -hNET expressing cells were grown on tissue culture dishes. After removing the medium and washing the plates with Ca^2+-, Mg^2+-free phosphate buffered saline (PBS), fresh medium was added and the plates were placed in a 25° C. water bath for 5 minutes. Cells were gently lifted from the plates and cell clusters separated by trituration. 50 μL aliquots of the suspended cells were added to assay tubes containing drugs and Krebs-HEPES assay buffer in a final volume of 0.5 mL.
(§2) Competition experiments were conducted in triplicate. After a 10 minute preincubation period at 25° C., [^3H]neurotransmitter (20 nM final concentration; [^3H]DA, [^3H]5-HT, or [^3H]NE) were added, and the mixtures incubated for 10 minutes. Reactions were terminated by filtration through Wallac filtermat A filters (presoaked in 0.05% polyethylenimine), using a Tomtec cell harvester. Scintillation fluid was added to each filtered spot, and radioactivity remaining on the filters determined using a Wallac 1205 Betaplate scintillation counter.
(§3) Specific uptake was defined as the difference in uptake observed in the absence and presence of 5 μM mazindol (hDAT and hNET) or 5 μM imipramine (hSERT). Inhibition of uptake was determined by non-linear regression using Prism software.

IC50 [nM]	Compound
1160	Clc1ccc2c(NCCCN3CCCN(C(c4ccccc4)c4ccccc4)CC3)ccnc2c1 [RCQ_73]
965	Clc1ccc2c(NCCCN3CCCN(C4c5ccccc5-c5ccccc54)CC3)ccnc2c1 [RCQ_76]

Test system: P. falciparum strain W2; note: key: S = sensitive; R = resistant; S/R = intermediate level of resistance
Assay: not given
Settings: cited from earlier work

Compound	Drug susceptibility, strain W2
CC1(C)N=C(N)N=C(N)N1c1ccc(Cl)cc1 [Cycloguanil]	R
OC(c1cc(C(F)(F)F)nc2c(C(F)(F)F)cccc12)C1CCCCN1 (stereo not drawn) [Mefloquine]	S
C=C[C@H]1C[N@@]2CC[C@H]1C[C@H]2[C@H](O)c1ccnc2ccc(OC)cc12 [Quinine]	R
COc1ncnc(NS(=O)(=O)c2ccc(N)cc2)c1OC [Sulfadoxine]	R

Biological target: T2, recombinant human dopamine (HEK-hDAT) transporter (Homo sapiens, UniProt Q01959)
T2 construct: expressed in transfected cells; host or cells: HEK cells expressing hDAT (HEK-hDAT)
T2 sequence (Q01959 whole entry): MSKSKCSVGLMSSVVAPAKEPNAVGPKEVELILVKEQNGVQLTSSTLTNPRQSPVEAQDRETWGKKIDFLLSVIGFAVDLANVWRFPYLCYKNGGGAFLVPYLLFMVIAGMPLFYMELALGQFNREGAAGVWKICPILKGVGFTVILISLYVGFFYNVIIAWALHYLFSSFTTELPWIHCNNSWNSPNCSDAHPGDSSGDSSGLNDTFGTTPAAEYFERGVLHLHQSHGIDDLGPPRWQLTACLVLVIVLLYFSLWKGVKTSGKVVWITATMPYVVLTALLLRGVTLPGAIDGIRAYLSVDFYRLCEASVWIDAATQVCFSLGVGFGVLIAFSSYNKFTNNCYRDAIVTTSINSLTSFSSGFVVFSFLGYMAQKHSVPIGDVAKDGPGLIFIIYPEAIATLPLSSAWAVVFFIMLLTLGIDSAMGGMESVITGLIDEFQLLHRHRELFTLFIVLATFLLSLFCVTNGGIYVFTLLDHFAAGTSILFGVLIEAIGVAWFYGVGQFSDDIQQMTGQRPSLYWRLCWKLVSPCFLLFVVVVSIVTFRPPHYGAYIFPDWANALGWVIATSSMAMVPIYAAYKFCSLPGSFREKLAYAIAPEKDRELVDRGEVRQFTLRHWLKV
Assay: Inhibition of [3H]neurotransmitter uptake, hDAT
Type: cell-based
Settings: not given
Procedure: as §1, §2, §3

IC50 [nM]	Compound
1400	Clc1ccc2c(NCCCN3CCCN(C(c4ccccc4)c4ccccc4)CC3)ccnc2c1 [RCQ_73]
1080	Clc1ccc2c(NCCCN3CCCN(C4c5ccccc5-c5ccccc54)CC3)ccnc2c1 [RCQ_76]

Test system: mitogen-induced murine spleen lymphocytes
Assay: not given
Type: cell-based
Settings: LC50; mouse spleen lymphocytes; 72 hours + 24 hours resazurin
Procedure: Mouse spleen lymphocytes were isolated from C57B1/6J mice by teasing tissues on a metallic sieve screen. […] Two hundred (200) μl isolated cells were then seeded in separate wells of a 96-well flat-bottom tissue culture plate at a density of 2×10^5 cells per well. […] After 72 hours incubation in a humidified atmosphere at 37° C. and 5% CO2, a solution of resazurin PBS was added to a final concentration 10 μM, and the plates were returned to the incubator for another 24 hours. Resazurin is a substrate which changes color in response to metabolic activity (such as, living cells). […] LC50 values were determined from plots of florescence versus drug concentration using non-linear regression by Prism software.

Compound	Cytotoxicity [nM]
Clc1ccc2c(NCCCNCCCN(Cc3ccccc3)Cc3ccccc3)ccnc2c1 [RCQ_22]	700
Clc1ccc(C(c2ccccc2)N2CCN(CCNc3ccnc4cc(Cl)ccc34)CC2)cc1 (stereo not drawn) [RCQ_32]	1400
CN(CCCN1c2ccccc2CCc2ccccc21)CCNc1ccnc2cc(Cl)ccc12 [RCQ_33]	1400
Clc1ccc2c(NCCCN3CCN(C(c4ccccc4)c4ccccc4)CC3)ccnc2c1 [RCQ_34]	1100
Clc1ccc2c(NCCCN3CCCN(C(c4ccccc4)c4ccccc4)CC3)ccnc2c1 [RCQ_73]	700
Clc1ccc2c(NCCCN3CCCN(C4c5ccccc5-c5ccccc54)CC3)ccnc2c1 [RCQ_76]	2500

Same assay, conditions: Table 14; mouse spleen lymphocytes

Compound	cytotoxicity values [nM]
Clc1ccc2c(NCCCNCCCN(Cc3ccccc3)Cc3ccccc3)ccnc2c1 [RCQ_22]	700
Clc1ccc2c(NCCCN3CCCN(C(c4ccccc4)c4ccccc4)CC3)ccnc2c1 [RCQ_73]	700

Test system: D6 (CQ^S) P. falciparum strain
Assay: In vitro fluorescence (Sybr Green I) growth inhibition assay, D6 strain
Type: cell-based
Settings: Plasmodium falciparum, D6; Table 13; growth inhibition; read-out: IC50 (nM) D6 (CQ^S)
Source text: (§4) One exemplary method for measuring inhibitory effects of RCQ compound in vitro has been reported by Smilkstein et al. (Antimicrob. Agents Chemother., 48(5):1803-1806, 2004). This method employs fluorescent detection of the level of parasitemia in cultured red blood cells and can be automated for high-throughput screening of antimalarial RCQs. This exemplary method allows the inhibitory agent (such as a RCQ) to be in contact with the parasite for an entire developmental cycle without purine starvation, which is in contrast to the traditional ^3H-hypoxanthine method (Desjardins et al., Antimicrob. Agents Chemother., 16(6):710-718, 1979). Briefly, to perform the Smilkstein et al. method, an initial parasitemia of approximately 0.2% is attained by adding uninfected red blood cells (RBCs) to a stock culture of Plasmodium sp.-infected RBCs. […] After a period of incubation (such as about 72 hours), a sufficient amount (e.g., 100 μL) of a fluorescent DNA binding dye-detergent mixture (e.g., Sybr Green I dye-detergent mixture) to lyse cells and bind to DNA is added to the reactions. Because uninfected RBCs have no DNA, only parasite DNA (in infected RBCs) is available for binding to the fluorescent dye (e.g., Sybr Green I). Samples are then incubated in the dark for a period of time (e.g., one hour), followed by measurement of levels of fluorescence. For Sybr Green I, excitation and emission wavelength are 485 and 530 nm, respectively. Fluorescence readings, which represent the amount of parasite DNA in the sample, can be plotted against the Log [drug] and fit to a curve by nonlinear regression to obtain the IC50 value for the tested compound.
(§5) An in vitro fluorescence assay for determining IC50 of antimalarial drugs was performed as previously described by Smilkstein et al. (Antimicrob. Agents Chemother., 48(5):1803-1806, 2004). This relatively low-cost procedure can be automated for high-throughput screening of the antimalarial activities of RCQs described herein. Advantageous, this method also allows the tested agent (e.g, a RCQ) to be in contact with the parasite for an entire developmental cycle without purine starvation (which occurs with the commonly used ^3H-hypoxanthine method; see, e.g., Desjardins et al., Antimicrob. Agents Chemother., 16, (6):[…], 1979).
(§6) Briefly, an initial parasitemia of approximately 0.2% was attained by addition of uninfected red blood cells to a stock culture of cells infected with Dd2 (CQ^R) or D6 (CQ^S) P. falciparum strains. A 10 mM RCQ_02 solution (in DMSO) was prepared. RCQ_02 (at a final concentration from 10^−11 to 10^−4 M) and infected red blood cells (at a final concentration of 2% (v/v)) were mixed in 100 μL samples in individual wells of a 96-well plate. Each sample was prepared in triplicate. A triplicate set of reactions containing CQ (instead of RCQ_02) was included as a control. After a 72 hour incubation period, Sybr Green I dye-detergent mixture (100 μL) was added to each reaction. The samples were further incubated for an hour in the dark, and then placed in a 96-well fluorescence plate reader (Gemini-EM, […]) and analyzed with excitation and emission wavelength bands at 485 and 530 nm, respectively. Fluorescence readings were plotted against the Log [drug], and curve fitting performed by nonlinear regression to find the IC50 value.

Compound	IC50 [nM]
Clc1ccc2c(NCCCNCCCN(Cc3ccccc3)Cc3ccccc3)ccnc2c1 [RCQ_22]	45
Clc1ccc(C(c2ccccc2)N2CCN(CCNc3ccnc4cc(Cl)ccc34)CC2)cc1 (stereo not drawn) [RCQ_32]	2.6
CN(CCCN1c2ccccc2CCc2ccccc21)CCNc1ccnc2cc(Cl)ccc12 [RCQ_33]	8.1
Clc1ccc2c(NCCCN3CCN(C(c4ccccc4)c4ccccc4)CC3)ccnc2c1 [RCQ_34]	2.4
Clc1ccc2c(NCCCN3CCCN(C(c4ccccc4)c4ccccc4)CC3)ccnc2c1 [RCQ_73]	4.8
Clc1ccc2c(NCCCN3CCCN(C4c5ccccc5-c5ccccc54)CC3)ccnc2c1 [RCQ_76]	21.1

Test system: P. falciparum strain Dd2; note: key: S = sensitive; R = resistant; S/R = intermediate level of resistance
Assay: not given
Settings: cited from earlier work

Compound	Drug susceptibility, strain Dd2
CC1(C)N=C(N)N=C(N)N1c1ccc(Cl)cc1 [Cycloguanil]	S
OC(c1cc(C(F)(F)F)nc2c(C(F)(F)F)cccc12)C1CCCCN1 (stereo not drawn) [Mefloquine]	R
C=C[C@H]1C[N@@]2CC[C@H]1C[C@H]2[C@H](O)c1ccnc2ccc(OC)cc12 [Quinine]	R
COc1ncnc(NS(=O)(=O)c2ccc(N)cc2)c1OC [Sulfadoxine]	S

Test system: P. falciparum strain FCR3; note: key: S = sensitive; R = resistant; S/R = intermediate level of resistance
Assay: not given
Settings: cited from earlier work

Compound	Drug susceptibility, strain FCR3
CC1(C)N=C(N)N=C(N)N1c1ccc(Cl)cc1 [Cycloguanil]	S
OC(c1cc(C(F)(F)F)nc2c(C(F)(F)F)cccc12)C1CCCCN1 (stereo not drawn) [Mefloquine]	S
C=C[C@H]1C[N@@]2CC[C@H]1C[C@H]2[C@H](O)c1ccnc2ccc(OC)cc12 [Quinine]	S
COc1ncnc(NS(=O)(=O)c2ccc(N)cc2)c1OC [Sulfadoxine]	S

Test system: W2 (CQ^R) P. falciparum strain
Assay: In vitro fluorescence (Sybr Green I) growth inhibition assay, W2 strain
Type: cell-based
Settings: Plasmodium falciparum, W2; Table 13; growth inhibition; read-out: IC50 (nM) W2 (CQ^R)

Compound	IC50 [nM]
Clc1ccc(C(c2ccccc2)N2CCN(CCNc3ccnc4cc(Cl)ccc34)CC2)cc1 (stereo not drawn) [RCQ_32]	3.4
CN(CCCN1c2ccccc2CCc2ccccc21)CCNc1ccnc2cc(Cl)ccc12 [RCQ_33]	9.3
Clc1ccc2c(NCCCN3CCN(C(c4ccccc4)c4ccccc4)CC3)ccnc2c1 [RCQ_34]	2.5

Test system: Dd2 (CQ^R) P. falciparum strain
Assay: In vitro fluorescence (Sybr Green I) growth inhibition assay, Dd2 strain
Type: cell-based
Settings: Plasmodium falciparum, DD2; Table 13; growth inhibition; read-out: IC50 (nM) Dd2 (CQ^R)
Source text: as §4, §5, §6

Compound	IC50 [nM]
Clc1ccc2c(NCCCNCCCN(Cc3ccccc3)Cc3ccccc3)ccnc2c1 [RCQ_22]	79
Clc1ccc(C(c2ccccc2)N2CCN(CCNc3ccnc4cc(Cl)ccc34)CC2)cc1 (stereo not drawn) [RCQ_32]	3.4
CN(CCCN1c2ccccc2CCc2ccccc21)CCNc1ccnc2cc(Cl)ccc12 [RCQ_33]	9.3
Clc1ccc2c(NCCCN3CCN(C(c4ccccc4)c4ccccc4)CC3)ccnc2c1 [RCQ_34]	3.7
Clc1ccc2c(NCCCN3CCCN(C(c4ccccc4)c4ccccc4)CC3)ccnc2c1 [RCQ_73]	4.1
Clc1ccc2c(NCCCN3CCCN(C4c5ccccc5-c5ccccc54)CC3)ccnc2c1 [RCQ_76]	15.3

Test system: P. falciparum strain D6; note: key: S = sensitive; R = resistant; S/R = intermediate level of resistance
Assay: not given
Settings: cited from earlier work

Compound	Drug susceptibility, strain D6
CC1(C)N=C(N)N=C(N)N1c1ccc(Cl)cc1 [Cycloguanil]	S
OC(c1cc(C(F)(F)F)nc2c(C(F)(F)F)cccc12)C1CCCCN1 (stereo not drawn) [Mefloquine]	S/R
C=C[C@H]1C[N@@]2CC[C@H]1C[C@H]2[C@H](O)c1ccnc2ccc(OC)cc12 [Quinine]	S
COc1ncnc(NS(=O)(=O)c2ccc(N)cc2)c1OC [Sulfadoxine]	S

Biological target: T3, recombinant human norepinephrine (hNET) transporter (Homo sapiens, UniProt P23975)
T3 construct: expressed in transfected cells; host or cells: HEK cells expressing hNET
T3 sequence (P23975 whole entry): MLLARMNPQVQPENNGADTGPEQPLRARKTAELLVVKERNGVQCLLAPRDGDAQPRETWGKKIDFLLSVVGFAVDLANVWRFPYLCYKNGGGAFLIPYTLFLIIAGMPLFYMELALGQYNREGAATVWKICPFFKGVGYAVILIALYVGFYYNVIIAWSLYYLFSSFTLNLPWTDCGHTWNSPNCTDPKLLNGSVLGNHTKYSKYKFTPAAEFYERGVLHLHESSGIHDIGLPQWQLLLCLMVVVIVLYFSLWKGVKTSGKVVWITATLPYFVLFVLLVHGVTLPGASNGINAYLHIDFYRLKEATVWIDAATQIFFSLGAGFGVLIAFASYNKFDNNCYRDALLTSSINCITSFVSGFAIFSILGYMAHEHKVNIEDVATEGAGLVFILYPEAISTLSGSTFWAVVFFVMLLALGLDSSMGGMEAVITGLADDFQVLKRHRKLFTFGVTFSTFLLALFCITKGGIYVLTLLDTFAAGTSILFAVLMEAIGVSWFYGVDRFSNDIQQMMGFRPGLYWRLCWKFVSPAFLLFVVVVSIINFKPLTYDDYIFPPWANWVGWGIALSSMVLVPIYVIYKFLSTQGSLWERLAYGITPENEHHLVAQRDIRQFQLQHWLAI
Assay: Inhibition of [3H]neurotransmitter uptake, hNET
Type: cell-based
Settings: not given
Procedure: as §1, §2, §3

IC50 [nM]	Compound
660	Clc1ccc2c(NCCCN3CCCN(C(c4ccccc4)c4ccccc4)CC3)ccnc2c1 [RCQ_73]
550	Clc1ccc2c(NCCCN3CCCN(C4c5ccccc5-c5ccccc54)CC3)ccnc2c1 [RCQ_76]
